Residues, ends and D or L forms follow the SMILES beside them. No end group written: not given here. *: point of attachment. βNA = c1ccc2cc(N*)ccc2c1
Legend:
[1] = system: Acinetobacter venetianus; assay: Efflux pump blocker growth inhibition, Acinetobacter venetianus (FIG. 10); assay type: cell-based; settings: fuel present (FIG. 10)
Description: (§1) C-capped dipeptide efflux pump blocker, Phe-Arg β-naphthylamide dihydrochloride (MC-207,110) (Sigma Aldrich) was added to the fuel phase and the aqueous (minimal media M9, Bushnell-Haas, or water) phase of 1:1 fuel-minimal media mixtures containing environmental bacteria (Pseudomonas, Acinetobacter, Marinobacter, and Dietzia) at concentrations ranging from 1 to 1×10^9 cells/mL. Phe-Arg β-naphthylamide dihydrochloride was added to the fuel at concentrations of 0 μg/mL, 20 μg/mL, 40 μg/mL, 60 μg/mL, 80 μg/mL, and 100 μg/mL. Control experiments were performed by adding 0 μg/mL to 120 μg/mL of Phe-Arg β-naphthylamide to minimal media containing bacteria and glycerol as the energy source, but not fuel.
(§2) The antimicrobial effect of the efflux pump blocker was established daily by measuring growth through absorbance readings (OD600), DNA quantitation through qPCR, and colony counting techniques.

[2] = system: environmental bacteria (Pseudomonas, Acinetobacter, Marinobacter, and Dietzia); assay: Efflux pump blocker growth inhibition in 1:1 fuel-minimal media mixtures; assay type: cell-based; settings: for bacterial growth inhibition: fuel present (FIGS. 8 and 10)
Description: as §1, §2

[3] = system: Pseudomonas aeruginosa; assay: Efflux pump blocker growth inhibition, Pseudomonas aeruginosa (FIG. 10); assay type: cell-based; settings: fuel present (FIG. 10)
Description: as §1, §2

[4] = Stability in the presence of fuel; assay type: physicochemical; settings: activity was preserved
Source text: Additional experimental results (see FIG. 10) confirm that the growth inhibition effect and the inactivity of efflux pump were effective for other bacteria, including Pseudomonas aeruginosa and Acinetobacter venetianus. The c-capped dipeptides were stable in the presence of fuel and activity was preserved.

[5] = system: microbial growth in the aqueous phase; assay: Treatment solution administered to jet fuel, microbial growth in the aqueous phase (FIG. 12); assay type: cell-based; settings: 80 μg/mL final in jet fuel; stock 25 mg/mL in absolute ethanol, DiEGME or water; initial and days one to three (FIG. 12)
Description: Treatment solutions were prepared, as described above, with 25 mg/mL efflux pump inhibitor in various solvents, including absolute ethanol, DiEGME, and water. The treatment solutions were administrated to jet fuel at a final concentration in fuel of 0 μg/mL, 40 μg/mL, and 80 μg/mL. FIG. 12 illustrates results of the 80 μg/mL treatment on initial measured microbial growth in the aqueous phase as well as microbial growth after one, two, and three days.

[6] = Partition from fuel into the aqueous phase; assay type: physicochemical; settings: added to fuel (aqueous and fuel phase)
[7] = system: environmental bacteria (E. coli, Bacillus, and Pseudomonas); assay: Antimicrobial peptide growth inhibition in 1:1 fuel-growth media mixtures; assay type: cell-based; settings: for bacteria growth after addition to fuel: added to fuel (aqueous and fuel phase)
Description: (§3) Protegrin-1 and Magainin-2 antimicrobial peptides were added individually to the fuel phase and the aqueous (minimal media M9, Bushnell-Haas, or water) phase of 1:1 fuel-growth media mixtures containing environmental bacteria (E. coli, Bacillus, and Pseudomonas) at concentrations ranging from 1 to 1×10^9 cells/mL. Magainin 1 and 2 were obtained from Sigma-Aldrich (St. Louis, Mo.). Protegrin-1 was obtained from AnaSpec (Fremont, Calif.) or produced from a transgenic construct containing a fusion between green fluorescent protein (“GFP”) and the Protegrin-1 coding gene. The GFP-Protegrin fusion was purified by affinity chromatography and Protegrin cleaved from the fusion for use, as pure, or as a fusion in the bioassays.
(§4) The antimicrobial peptides were added at the following concentrations: 0 μg/mL, 1 μg/mL, 2.5 μg/mL, 5 μg/mL, 10 μg/mL, 20 μg/mL, 50 μg/mL, 75 μg/mL, 100 μg/mL, and 125 μg/mL in the presence and absence of fuel. Experiments using minimal media with bacteria in the presence of fuel were designed to measure the effect of fuel in combination with the antimicrobial peptide control. Control experiments contained glycerol instead of fuel as the energy source.
(§5) The antimicrobial effect of the peptides was measured every 24 hours for four days after inoculation by measuring growth through absorbance readings (OD600), DNA quantitation through qPCR, and colony counting techniques.

[8] = system: E. coli; assay: Antimicrobial peptide growth inhibition, E. coli (FIG. 6); assay type: cell-based; settings: absence of fuel
Description: as §3, §4, §5

[9] = system: Pseudomonas; assay: Antimicrobial peptide growth inhibition, Pseudomonas (FIG. 7); assay type: cell-based; settings: absence of fuel
Description: as §3, §4, §5

Row | Molecule | growth inhibition effect and inactivity of efflux pump [1] | bacterial growth inhibition ([2]; 20 μg/mL) | bacterial growth inhibition ([2]; 40 μg/mL) | bacterial growth inhibition ([2]; 60 μg/mL) | bacterial growth inhibition ([2]; 80 μg/mL) | bacterial growth inhibition ([2]; 100 μg/mL) | inhibitory effect on bacterial growth ([2]; fuel not present (glycerol control), concentrations as high as 100 μg/mL (FIG. 9)) | concentration giving complete growth inhibition for up to 17 days ([2]; fuel present, up to 17 days (FIG. 11)) | microbial growth and proliferation under periodic administration ([2]; low concentration (less than 20 μg/mL) every 3 to 4 days) | growth inhibition effect and inactivity of efflux pump [3] | stability in the presence of fuel [4] | microbial growth in the aqueous phase [5] | partition between fuel and aqueous phase [6] | concentration required to completely inhibit bacteria growth ([7]; absence of fuel (FIG. 4)) [µg/mL] | bacteria growth after addition to fuel [7] | concentration required to completely inhibit growth [8] [µg/mL] | concentration that prevented microbial growth ([7]; peptide added directly to the fuel phase) | concentration required to completely inhibit growth [9] [µg/mL]
1 | Cl.Cl.N=C(N)NCCC[C@H](NC(=O)[C@@H](N)Cc1ccccc1)C(=O)Nc1ccc2ccccc2c1 [c-capped dipeptide, Phe-Arg β-naphthylamide dihydrochloride] (H-Phe-Arg-βNA) | effective | Partial bacterial growth inhibition | complete growth inhibition | complete growth inhibition | complete growth inhibition | complete growth inhibition | not observed | greater than 80 μg/mL | prevented microbial growth and proliferation | effective | stable | significantly decreased microbial growth | – | – | – | – | – | –
2 | Magainin-2 | – | – | – | – | – | – | – | – | – | – | – | – | partitioned into the aqueous phase | 125 | inhibited bacteria growth | – | – | –
3 | Protegrin-1 (RGGRLCYCRRRFCVCVGR; ends and bridges not checked; cysteine pairing not given here; UniProt P32194 131-148, looked up) [18 amino acid cysteine-rich β-sheet antimicrobial peptide; from AnaSpec or cleaved from a GFP-Protegrin fusion] | – | – | – | – | – | – | – | – | – | – | – | – | partitioned into the aqueous phase | – | inhibited bacteria growth | 5 | less than or equal to 1 μg/mL | 5
